Measurements as given in patent EP1226131B1, “ISOXAZOLECARBOXAMIDE DERIVATIVES” (RECORDATI INDUSTRIA CHIMICA E FARMACEUTICA S.p.a., priority 1999, dated 2001).

What was measured:
α1L adrenoceptor = assay: Functional antagonism of noradrenaline-induced contractions of rabbit aorta pretreated with chloroethylclonidine; format: biochemical; conditions: functional affinity, NA-induced contractions
Procedure: Adult male New Zealand rabbits were sacrificed by cervical dislocation. The aorta was removed, placed in Krebs-Henseleit buffer and dissected free of adhering tissue.
Each antagonist concentration was tested using 2-3 aortic rings from different rabbits.
Dose ratios (i.e., the ratio between the concentrations of noradrenaline required to produce half-maximal response in the presence and in the absence of the test antagonist) were calculated at each concentration of the compounds.

α1a adrenergic receptor = target: T1, α1a adrenergic receptor (Homo sapiens, UniProt P35348); assay: Radioligand binding assay ([3H]prazosin) on cloned α1-adrenoceptor subtype, membranes of transfected cells
T1 sequence (P35348 1-466): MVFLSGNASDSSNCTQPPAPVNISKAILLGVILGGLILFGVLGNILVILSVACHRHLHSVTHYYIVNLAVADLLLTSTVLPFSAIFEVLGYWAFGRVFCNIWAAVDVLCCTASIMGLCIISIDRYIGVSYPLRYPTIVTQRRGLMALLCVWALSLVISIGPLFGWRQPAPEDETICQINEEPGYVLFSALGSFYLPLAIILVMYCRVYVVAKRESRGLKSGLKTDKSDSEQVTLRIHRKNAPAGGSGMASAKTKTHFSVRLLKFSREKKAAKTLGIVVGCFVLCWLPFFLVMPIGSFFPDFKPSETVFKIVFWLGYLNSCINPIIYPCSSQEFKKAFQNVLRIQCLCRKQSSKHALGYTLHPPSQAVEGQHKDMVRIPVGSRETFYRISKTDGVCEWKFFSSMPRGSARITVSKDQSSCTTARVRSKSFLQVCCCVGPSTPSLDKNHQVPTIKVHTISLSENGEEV
Procedure: (§2) Determination of affinity for cloned subtypes of the cloned α1-adrenoceptor was performed in membranes from cells transfected by electroporation with DNA expressing the genes encoding each α1-adrenoceptor subtype.
(§3) Non-specific binding was determined in the presence of 10 µM phentolamine. Incubation was stopped by addition of ice-cold Tris buffer and rapid filtration through 0.2%-polyethyleneimine pretreated Schleicher & Schuell GF52 filters. […] The homogenates were centrifuged at 40000 × g × 20 minutes and the membranes were resuspended in a small volume of ice-cold buffer containing Tris 5 mM and EDTA 5 mM (pH 7.4) and immediately frozen and stored at -70°C until use.
Data were expressed as mean of Ki.

[1] = test system: urethral contractions (UP) induced by noradrenaline (NA); assay: Urethral contractions induced by noradrenaline injection in anaesthetised dogs, i.v. administration; format: in vivo; conditions: dog
Procedure: (§1) The experiments were performed according to the method of Imagawa J. et al., J Pharmacol. Methods 22, 103-111 (1989), with substantial modifications, as follows: adult male beagle dogs, weighing 8-10 kg, were anaesthetised with pentobarbital sodium (30 mg/kg i.v. and 2 mg/kg/h i.v.), intubated and spontaneously ventilated with room air. In order to monitor systemic blood pressure (BP), a polyethylene (PE) catheter was introduced into the aortic arch through the left femoral artery. A collateral of the left femoral vein was cannulated for infusion of anaesthetic, and the right femoral vein was cannulated for administration of the compounds. For intraarterial (i.a.) injection of noradrenaline (NA), a PE catheter was introduced into the lower portion of the abdominal aorta via the right external iliac artery. Through such procedure, NA was selectively distributed to the lower urinary tract. A paramedian vertical suprapubic incision extending from the base of the pelvis to the mid-abdominal region was made and the bladder and the prostate were exposed. The bladder was manually emptied with a syringe. […] The distal end of the right or left branch of the nerve was placed on a bipolar platinum electrode. Prostatic urethral pressure was monitored with a Mikro-tip cathe[…]) introduced into the bladder via the external urethral meatus, and withdrawn until the pressure transducer was positioned in the prostatic region of the urethra. A ligature was secured between the neck of the bladder and urethra to isolate the response of the latter and to avoid any interaction with the bladder. Another ligature was put around the Mikro-tip catheter at the external meatus, to secure the catheter itself. […] Both i.a. injections of NA and stimulations of the hypogastric nerve were repeated 5 minutes after every dosing of test compound with intervals of about 5 minutes between two stimulations. In order to compare the effects of the administered compound, dose/response curves were constructed by computing, at the peak effect, the percent decrease in diastolic blood pressure and the percent inhibition of the increase in urethral pressure induced by both types of stimulation used.

[2] = test system: urethral contractions (UP) induced by hypogastric-nerve stimulation (HYP); assay: Urethral contractions induced by hypogastric-nerve stimulation in anaesthetised dogs, i.v. administration; format: in vivo; conditions: Canis lupus familiaris, iv, dog, dose inhibiting by 50% urethral contractions induced by hypogastric-nerve stimulation, read-out: UP ID50 HYP
Procedure: as §1, with “In order to compare the effects of the administered compound, dose/response curves were constructed by computing, at the peak effect, the percent decrease in diastolic blood pressure and the percent inhibition of the increase in urethral pressure induced by both types of stimulation used.” left out

[3] = target: T2, recombinant α1d-adrenoceptor (Homo sapiens, UniProt P25100); assay: Radioligand binding assay ([3H]prazosin) on cloned α1-adrenoceptor subtype, membranes of transfected cells
T2 sequence (P25100 1-572): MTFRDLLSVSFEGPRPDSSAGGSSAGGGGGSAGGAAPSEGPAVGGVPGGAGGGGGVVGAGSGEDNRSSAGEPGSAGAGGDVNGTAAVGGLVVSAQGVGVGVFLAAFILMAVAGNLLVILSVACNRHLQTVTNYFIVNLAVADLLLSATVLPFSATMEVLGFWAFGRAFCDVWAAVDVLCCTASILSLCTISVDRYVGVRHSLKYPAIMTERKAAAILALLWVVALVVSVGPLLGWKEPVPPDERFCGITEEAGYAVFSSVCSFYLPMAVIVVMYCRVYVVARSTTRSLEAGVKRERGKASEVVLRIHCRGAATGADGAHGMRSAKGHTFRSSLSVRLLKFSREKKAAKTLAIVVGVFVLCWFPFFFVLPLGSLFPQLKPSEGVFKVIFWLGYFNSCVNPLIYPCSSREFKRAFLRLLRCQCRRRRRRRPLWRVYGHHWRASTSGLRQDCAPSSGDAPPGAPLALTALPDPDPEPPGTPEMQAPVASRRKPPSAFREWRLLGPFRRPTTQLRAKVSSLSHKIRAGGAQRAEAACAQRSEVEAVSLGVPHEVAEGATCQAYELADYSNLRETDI
Procedure: as §2, §3
Data were expressed as mean of Ki.

[4] = test system: diastolic blood pressure (DBP); assay: Effect on diastolic blood pressure in anaesthetised dogs, i.v. administration; format: in vivo; conditions: dog, dose inducing a 25% decrease in diastolic blood pressure, one value spanning c3 and c4
Procedure: The experiments were performed according to the method of Imagawa J. et al., J Pharmacol. Methods 22, 103-111 (1989), with substantial modifications, as follows: adult male beagle dogs, weighing 8-10 kg, were anaesthetised with pentobarbital sodium (30 mg/kg i.v. and 2 mg/kg/h i.v.), intubated and spontaneously ventilated with room air. In order to monitor systemic blood pressure (BP), a polyethylene (PE) catheter was introduced into the aortic arch through the left femoral artery. A collateral of the left femoral vein was cannulated for infusion of anaesthetic, and the right femoral vein was cannulated for administration of the compounds. For intraarterial (i.a.) injection of noradrenaline (NA), a PE catheter was introduced into the lower portion of the abdominal aorta via the right external iliac artery. Through such procedure, NA was selectively distributed to the lower urinary tract. A paramedian vertical suprapubic incision extending from the base of the pelvis to the mid-abdominal region was made and the bladder and the prostate were exposed. The bladder was manually emptied with a syringe. […] The distal end of the right or left branch of the nerve was placed on a bipolar platinum electrode. Prostatic urethral pressure was monitored with a Mikro-tip catheter (5F) introduced into the bladder via the external urethral meatus, and withdrawn until the pressure transducer was positioned in the prostatic region of the urethra. A ligature was secured between the neck of the bladder and urethra to isolate the response of the latter and to avoid any interaction with the bladder. Another ligature was put around the Mikro-tip catheter at the external meatus, to secure the catheter itself. The hypogastric nerve stimulation was made with a train of rectangular pulses of 10-15 V, 10-30 Hz, width 5 msec, 8 sec duration.
After a stabilising period following the surgical procedure (30 minutes), in which arterial and prostatic urethral pressure were continuously monitored as basal values, i.a. administration of NA and stimulation of the hypogastric nerve were alternately made at intervals of 10 minutes.
The dose of NA and the parameter of hypogastric nerve stimulation chosen were such as to produce an increase of at least 100% in urethral pressure. The test compounds were administered i.v. in a cumulative manner with intervals of 15-20 min between administrations. Both i.a. injections of NA and stimulations of the hypogastric nerve were repeated 5 minutes after every dosing of test compound with intervals of about 5 minutes between two stimulations. […]

Ki (α1a adrenergic receptor): 66 pM | Ki [3]: 1450 pM
Structure (SMILES): Cc1onc(-c2ccccc2)c1C(=O)NCCCN1CCN(c2ccccc2OCC(F)(F)F)CC1 [Example 3, 5-Methyl-3-phenyl-N-{3-[4-[2-(2,2,2-trifluoroethoxy)-phenyl]-1-piperazinyl]-propyl}isoxazole-4-carboxamide]
pKb (α1L adrenoceptor): 8.47 | ED50 ([1]; Canis lupus familiaris, iv, dose inhibiting by 50% urethral contractions induced by noradrenaline, read-out: UP ID50 NA): 1.3 µg/kg | R1 (DBP/NA) ([1]; ratio DBP ED25 / UP ID50 NA): 396 | ED50 [2]: 2.4 µg/kg | DBP ED25 [4]: 514.7 µg/kg
